Assay results from patent US7763426B2, “Probes and methods for detection of Escheridia coli and antibiotic resistance” (priority 2004, dated 2010).
“Also recorded” adds a separate entry of the source. {Fluorescein} = fluorescein label (binding site for anti-fluorescein Fab-HRP); {Biotin} = biotin (capture probe anchor)

What was measured:
bacterial 16S rRNA [1] = experiment: Sensor validation using control ATCC bacterial strains, UTI Chip with 7-detector-probe mixture (Example 3); format: binding
Text: The following American Type Culture Collection (ATCC) strains were obtained from the UCLA Clinical Microbiology Laboratory: Escherichia coli strain 35218, Klebsiella pneumoniae strain 13883, K. oxytoca strain 49131, Enterobacter aerogenes strain 13048. E. cloacae strain 13047, Proteus mirabilis strain 12453, Pseudomonas aeruginosa strain 10145, Citrobacter freundii strain 8090, and Enterococcus faecalis strain 49532. Additional strains of uropathogenic bacteria were obtained from the UCLA Uropathogen Specimen Bank: E. coli strain Ec103, K. pneumoniae strain Kp295, P. mirabilis strain Pm278, P. aeruginosa strain Pa3, and E. faecalis strain Eo111. Isolation of uropathogens from clinical urine specimens was approved by the UCLA and VA Greater Los Angeles Healthcare System institutional Review Boards. The identity of all clinical strains was determined by standard biochemical assays and verified by 16S rRNA gene sequencing. The 16S rRNA genes were PCR amplified with universal primers 8UA and 1485B.^17 The amplified product was purified by using the QIAquick PCR purification kit (QIAGEN, Inc., Chatsworth, Calif.) and directly sequenced using primer pairs 8UA/907B and 774A/1485B as described previously.^18 DNA sequencing was performed at the W. M. Keck Foundation Biotechnology Resource Laboratory (New Haven, Conn.). Isolates were inoculated into Brucella broth with 15% glycerol (BBL, Maryland) and were stored at −70° C. Bacteria were grown overnight in Luria Broth (LB), inoculated into LB and grown to logarithmic phase as measured by OD600. Concentration of the logarithmic phase specimens was determined by serial plating, typically yielding 10^7-10^8 bacteria/ml.
Logarithmic phase bacterial cells were concentrated by centrifugation at 10.000 rpm for 5 min, Lysis of bacterial cells was performed by addition of 10 μl of one or more of the following […]. 0.1% Triton X-100 in 20 mM Tris-HCl, pH 8.0, 2 mM EDTA and 1 mg/ml lysozyme (Sigma). After incubation at room temperature, 50 μl of the detector probe (0.25 μM) in 2.5% bovine serum albumin (Sigma)—1 M phosphate buffer, pH 7.4, was added to the bacterial lysate. The detector probe/bacterial lysate mixture was incubated for 10 min at 65° C. to allow hybridization of the detector probe to target rRNA. 4 μl of the bacterial lysate/detector probe mixture was deposited on each of the working electrodes in the sensor array. The sensor array was incubated for 10 min at 65° C. in a humidified chamber. After washing and drying, 4 μl of 0.5 U/mil anti-fluorescein horseradish peroxidase (HRP) Fab conjugate (Roche, diluted in 0.5% casein in 1 M sodium phosphate buffer, pH 7.4) were deposited on each of the working electrodes for 10-15 min. After washing and drying, a prefabricated plastic well manifold (GeneFluidics) was bonded to the sensor array. 50 μl of HRP substrate solution (K-Blue Aqueous TMB, Neogen, Lexington, Ky.) was placed on each of the sensors in the array so as to cover all three of the electrodes. Measurements were immediately and simultaneously taken for all 16 sensors. The entire assay protocol was completed within 45 min from the initiation of bacterial lysis. Amperometric current vs. time was measured using a multichannel potentiostat (GeneFluidics). The voltage was fixed at −200 mV (vs. reference), and the electroreduction current was measured at 60 sec after the HRP redox reaction reached steady state. Negative controls were included in each experiment in which 1 M phosphate buffer, pH 7.4, was used as the target instead of bacterial lysate. All samples were analyzed in duplicate.
Experiments were performed on ATCC strains to verify probe specificity using a 16-sensor array “UTI chip” in which the UNI782C, EB1176C, EC434C, KE434C, PM187C, PA102C, and EF207C 5′-biotinylated capture probes (defined in Table 1) were tested in duplicate. The two remaining sensors in the array served as negative controls (using capture probe UNI782C without bacterial lysate). […]

Enterococcus 16S rRNA = experiment: Amperometric detection of bacterial 16S rRNA, 65° C. hybridization (Examples 2, 3); format: binding, Enterococcus faecalis; details: for sensitivity of electrochemical sensor assay (cells detected): five-fold serial dilutions of enterococcal cells, capture probe EF207C, EF165D 5′-fluorescein, EF171D 3′-fluorescein
bacterial 16S rRNA [2] = experiment: Species specificity of short probe pairs, 16 sensor array at ambient temperature (Example 5); format: binding
E. coli 16S rRNA = experiment: Amperometric detection of E. coli 16S rRNA with short probes at ambient temperature (Example 5); format: binding, Escherichia coli; details: for sensitivity (threshold): fivefold dilutions of E. coli cells
[3] = tested on: 16S rRNA in lysates of uropathogens; experiment: Species specificity of uropathogen probe pairs with the electrochemical sensor array (Example 1); format: binding; details: probe pairs of Table 1
bacterial 16S rRNA [4] = experiment: Clinical validity study: UTI Chip on blinded clinical urine specimens; format: binding
Description: Amperometric detection of bacterial 16S rRNA. An overview of the electrochemical sensor detection strategy is presented in panel C of FIG. 1. One ml of bacteria in Luria broth, inoculated clean urine, or clinical urine samples was centrifuged at 10,000×g for 5 min. The supernatant was discarded and the bacteria were lysed by resuspension of the pellet in 10 μl of 1 M NaOH and incubation at room temperature for 5 min. In some experiments, addition of 1M NaOH was preceded by resuspension of the bacterial pellet in 10 μl of 0.1% Triton X-100, 2 mM EDTA, and 1 mg/ml lysozyme (Sigma) in 20 mM Tris-HCl, pH 8.0, and incubation at room temperature for 5 min. 50 μl of the detector probe (0.25 μM) in 2.5% bovine serum albumin (Sigma, St. Louis, Mo.) 1 M phosphate buffer, pH 7.4, were added to the bacterial lysate and incubated for 10 min at 65° C. to allow target-probe hybridization. 4 μl of the bacterial lysate/detector probe mixture was deposited on each of the working electrodes in the sensor array and incubated for 15 min at 65° C. in a humidified chamber. After washing and drying, 4 μl of 0.5 U/ml anti-fluorescein horseradish peroxidase (HRP) Fab fragments (Roche, diluted in 0.5% casein in 10 mM phosphate buffered saline, pH 7.4) were deposited on each of the working electrodes for 15 min. After washing and drying, a prefabricated plastic well manifold (GeneFluidics, Monterey Park, Calif.) was bonded to the sensor array. The sensor array was put into the chip reader (FIG. 18) and 50 μl of 3,3′,5,5′-tetramethylbenzidine (TMB), H2O2 solution (K-Blue Low Activity TMB Substrate, Neogen, Lexington, Ky.) was placed on each of the sensors in the array so as to cover all three electrodes of each sensor. Electrochemical measurements are immediately and simultaneously taken for all 16 sensors. For each array, negative control (NC) sensors were tested including the UNI capture probe, detector probe, and 2.5% bovine serum albumin (Sigma, St, Louis, Mo.) in 1 M phosphate buffer, pH 7.4, instead of bacterial lysate. The entire assay protocol was completed within 45 min from the time when bacterial lysis was commenced. Amperometric current vs. time was measured using a multichannel potentiostat (GeneFluidics). The voltage was fixed at −200 mV (vs. reference), and the electroreduction current was measured at 60 s after the HRP redox reaction reached steady state.
Clinical validity study design. Clinical urine specimens were received from routine urine cultures collected from inpatients and outpatients and submitted to the UCLA Clinical Microbiology Laboratory. Routine plating on tripticase soy agar with 5% sheep blood was performed on each specimen for phenotypic identification and colony counting while an aliquot of each specimen was held at 4° C. overnight. On the day after plating, specimens were selected for inclusion in the study on the basis of a rapid indole test for the purpose of including uropathogens other than Escherichia coli in approximately one-half of the specimens. The other half of the specimens were divided between E. coli-containing specimens and specimens determined to have ““no significant growth” or no growth” (see definitions below). Because most UTIs involve a single uropathogen, specimens determined by the clinical microbiology laboratory to have more than one organism present were excluded. Blinded specimens selected for inclusion in the study were stripped of patient identifiers and any microbiological data before delivery to the research laboratory for testing with the electrochemical sensor array.
Experiments were performed on all specimens using the 16-sensor array ‘UTI Chip’, in which the UNI, EB, EC, PM, KE, PA, and EF capture probes (defined in Tables 1 and 2) were tested in duplicate. The two remaining sensors served as negative controls (including capture and detector probes without bacterial lysate). […]

[5] = specimens with Proteus mirabilis
[6] = specimens with Escherichia coli

## GGGTTCATCCGATAGTGCAAGGTCCGAAGAGCCCC (DNA GGGTTCATCCGATAGTGCAAGGTCCGAAGAGCCCC; chemistry not given here; listed as Proteus mirabilis) [PM188C]
Bacterial 16S rRNA [1]
  capture probe specificity: specific for P. mirabilis

## TTGGTGAGCCGTTACCTCACCAACTAGCTAATGCA (DNA TTGGTGAGCCGTTACCTCACCAACTAGCTAATGCA; chemistry not given here; listed as Enterococcus sp.) [EF207C]
Bacterial 16S rRNA [1]
  capture probe specificity: E. faecalis

## GTCAATGAGCAAAGGTATTAACTTTACTCCCTTCC (DNA GTCAATGAGCAAAGGTATTAACTTTACTCCCTTCC; chemistry not given here; listed as Escherichia coli) [EC434C]
Bacterial 16S rRNA [1]
  capture probe specificity: positive for E. coli

## CCGCGGGTCCATCCATCAGCGACACCCGAAAGCGC (DNA CCGCGGGTCCATCCATCAGCGACACCCGAAAGCGC; sugars by position and backbone not given here; further chemistry not fully specified; listed as Enterococcus sp.) [EF171D]
Enterococcus 16S rRNA; 3′-fluorescein and continuity of hybridization sites vs 5′-fluorescein with gap
  improvement in sensitivity: 24-25 fold
Enterococcus 16S rRNA
  sensitivity of electrochemical sensor assay (cells detected): 9,400 cells

## GTCCATCCATCAGCGACACCCGAAAGCGCCTTTCA (DNA GTCCATCCATCAGCGACACCCGAAAGCGCCTTTCA; sugars by position and backbone not given here; listed as Enterococcus sp.) [EF165D]
Enterococcus 16S rRNA
  sensitivity of electrochemical sensor assay (cells detected): 232,000 cells

## GTCAATCGNCRAGGTTATTAACCTYAHCGCCTTCC (DNA GTCAATCGMCRAGGTTATTAACCTYAHCGCCTTCC; chemistry not given here; listed as Klebsiella pneumoniae) [KE434C]
Bacterial 16S rRNA [1]
  capture probe specificity: positive for all Enterobacteriaceae except E. coli

## CGGACTACGACRYACTTTATGAGGTCCGCTTGCTC (DNA CGGACTACGACRYACTTTATGAGGTCCGCTTGCTC; chemistry not given here; listed as Enterobacter sp.) [EB1172C]
Bacterial 16S rRNA [1]
  capture probe specificity: positive for all members of the family Enterobacteriaceae tested and negative for P. aeruginosa and E. faecalis

## CCCACTTTCTCCCTCAGGACGTATGCGGTATTAGC (DNA CCCACTTTCTCCCTCAGGACGTATGCGGTATTAGC; chemistry not given here; listed as Pseudomonas aeruginosa) [PA111C]
Bacterial 16S rRNA [1]
  capture probe specificity: P. aeruginosa

## EC439C (15 mer)/EC424D (15 mer): E. coli probe pair, SEQ ID NO: 44 and 45 (DNA 1 TATTAACTTTACTCC; DNA 2 CTTCCTCCCCGCTGA; chemistry not given here; listed as Escherichia coli)
Bacterial 16S rRNA [2]; ambient temperature
  cross-reactivity with P. aeruginosa: Weak cross-reactivity
Bacterial 16S rRNA [2]; ambient temperature hybridization
  Species detected: Ec
Bacterial 16S rRNA [2]; ambient temperature, * cross-reactivity at a level significantly less than with the target species
  Species not detected: Ea, Ef, Kp, Pa*, Pm
E. coli 16S rRNA
  mean current: 1605 negative nanoamperes
E. coli 16S rRNA; listed as 15mer capture and detector probes
  sensitivity (threshold): approximately 250 cells
E. coli 16S rRNA; listed as E. coli-specific 15mer probe pairs
  sensitivity (threshold): approximately 173 cells

## CATCGTTTACGGCGTGGACTACCAGGG (DNA CATCGTTTACGGCGTGGACTACCAGGG; chemistry not given here) [UNI782C]
Bacterial 16S rRNA [1]
  capture probe specificity: detected all bacterial uropathogens tested

B1: PM: Proteus mirabilis probe pair: capture 202 (35 mer) SEQ ID NO: 3, detector 162 (35 mer) SEQ ID NO: 4 (nucleic acid, listed as Proteus mirabilis)
DNA 1: GGGTTCATCCGATAGTGCAAGGTCCGAAGAGCCCC
DNA 2: GGTCCGTAGACATTATGCGGTATTAGCCACCGTTT
modifications: DNA 1: 5' {Biotin}, sugars by position and backbone not given here; DNA 2: 5' {Fluorescein}, sugars by position and backbone not given here
[3]
  Species detected: Pm
  Species not detected: Cf, Ea, Ec, El, Eo, Ko, Kp, Pa
Bacterial 16S rRNA [4]; [5]
  Mean (range): 0.74 (0.48-0.96) log10 units over background
  Positive/Total = Percent: Pm 3/3 = 100%

B2: EC: Escherichia coli probe pair: capture 449 (35 mer) SEQ ID NO: 1, detector 408 (35 mer) SEQ ID NO: 2 (nucleic acid, listed as Escherichia coli)
DNA 1: GTCAATGAGCAAAGGTATTAACTTTACTCCCTTCC
DNA 2: CTGAAAGTACTTTACAACCCGAAGGCCTTCTTCAT
modifications: DNA 1: 5' {Biotin}, sugars by position and backbone not given here; DNA 2: 5' {Fluorescein}, sugars by position and backbone not given here
[3]
  Species detected: Ec
  Species not detected: Cf, Ea, El Eo, Ko, Kp,; also recorded: Pa, Pm
Bacterial 16S rRNA [4]; [6]
  Mean (range): 1.06 (0.48-1.59) log10 units over background
  Positive/Total = Percent: Ec 26/26 = 100%
